Measurements: PMC11641365, “Evaluation of In Vitro Biological Activity of Flavanone/Chromanone Derivatives: Molecular Analysis of Anticancer Mechanisms in Colorectal Cancer” (International Journal of Molecular Sciences, 2024)

How the values were obtained:
Format in all cases: cell-based, human
[1] = system: colon cancer cells; test: Reactive nitrogen species level, DAF-FM probe, all tested cell lines; conditions: any of the tested cell lines, compound at IC50, 24 h
Protocol: Diaminofluorescein-FM diacetate (DAF-FM diacetate, Invitrogen, Carlsbad, CA, USA), a cell-permeable fluorescent probe, is widely utilized for the detection and quantification of reactive nitrogen species (RNS), primarily nitric oxide (NO). […] Upon interaction with NO, however, it undergoes a chemical transformation resulting in the formation of a highly fluorescent benzotriazole derivative with excitation and emission maxima at 495 and 515 nm, respectively.
Cells were seeded in black 96-well fluorometric microplates at a density of 10 × 10^3 cells/mL. […] Following compound incubation, the medium was removed, and the cell monolayers were washed twice with HBSS (140 mM NaCl, 5 mM KCl, 0.8 mM MgCl2, 1.8 mM CaCl2, 1 mM Na2HPO4, 10 mM HEPES, and 1% glucose). […] Fluorescence measurements were conducted using a Perkin-Elmer LS-5B spectrofluorometer (MA, USA) at the following excitation and fluorescence emission wavelengths: λex = 495 nm/λem = 515 nm. The fluorescence intensity of control cells was arbitrarily assigned a value of 100%. The results were expressed as percentages of control, calculated by comparing the fluorescence intensity ratio of the test samples to controls (100%). The fluorescence of samples was denoted as Δf in relation to the control.

[2] = system: HT-29; test: Superoxide anion level, DHE probe; conditions: compound at IC50, 24 h, vs control
Protocol: Superoxide anion (O2^•−) levels were quantified using a microplate spectrofluorometric assay with dihydroethidium (DHE) (Life Technologies, Carlsbad, CA, USA). DHE is a well-established fluorogenic probe for intracellular superoxide detection. […] The reaction between superoxide and DHE produces a highly specific red fluorescent product, 2-hydroxyethidium (2-OH-E ^+).
(§1) Cells were seeded in black 96-well fluorometric microplates at a density of 10 × 10^3 cells/mL. […] Following compound incubation, the medium was removed, and the cell monolayers were washed twice with HBSS (140 mM NaCl, 5 mM KCl, 0.8 mM MgCl2, 1.8 mM CaCl2, 1 mM Na2HPO4, 10 mM HEPES, and 1% glucose). A volume of 50 µL of DHE solution in HBSS (final concentration 5 μM) was added to each well, and the cells were incubated for 30 min in the dark at 37 °C. After incubation with the DHE, fluorescence measurements were conducted using a Perkin-Elmer LS-5B spectrofluorometer (Waltham, MA, USA) at the following excitation and fluorescence emission wavelengths: λex = 498 nm/λem = 582 nm. The fluorescence intensity of control cells was arbitrarily assigned a value of 100%. The results were expressed as percentages of control, calculated by comparing the fluorescence intensity ratio of the test samples to controls (100%). The fluorescence of samples was denoted as Δf in relation to the control.

[3] = system: HT-29; test: Autophagy induction, monodansylcadaverine (MDC) fluorescence; conditions: compound at IC50, 24 h, vs control
Protocol: Autophagy induction in cells treated with the tested drugs was determined by measuring Monodansylcadaverine (MDC; Sigma-Aldrich; St. Louis, MO, USA) fluorescence according to a modified method described by Vázquez. […] In the cell, MDC accumulates in lipid-rich cell membranes. It has been shown that MDC can be used as a dye for detecting autophagy, as it accumulates in autophagolysosomes as a result of interaction with membrane lipids.
Cells were seeded in black 96-well fluorometric microplates at a density of 10 × 10^3 cells/mL. […] Following compound incubation, the medium was removed, and the cell monolayers were washed twice with HBSS (140 mM NaCl, 5 mM KCl, 0.8 mM MgCl2, 1.8 mM CaCl2, 1 mM Na2HPO4, 10 mM HEPES, and 1% glucose). A solution of MDC at a final concentration of 50 μM was added to each well and incubated in a CO2 cell culture incubator at 37 °C for 15 min. After incubation with MDC, the probe was removed, and the cells were lysed with 50 μL of lysis buffer (10 mM TRIS-HCl; pH 8 containing 0.1% Triton X-100). After lysis, fluorescence was measured at an excitation wavelength of λex = 390 nm and an emission wavelength of λem = 460 nm using a Perkin-Elmer LS-5B spectrofluorometer (Waltham, MA, USA). In order to normalize the number of cells in individual samples, the amount of DNA was determined by adding 50 μL of EB (final concentration 0.2 mM) to each well after measuring the MCB fluorescence and measuring the EB fluorescence at an excitation wavelength of λex = 530 nm and an emission wavelength of λem = 590 nm. The results were calculated as the ratio of MDC fluorescence to EB fluorescence.

[4] = system: HT-29; test: Hydrogen peroxide level, H2DCFDA probe; conditions: compound at IC50, 24 h, vs control
Protocol: Cellular H2O2 levels were assessed using 2′,7′-dichlorodihydrofluorescein diacetate (H2DCFDA, Sigma-Aldrich, St. Louis, MO, USA), a well-established fluorogenic probe for intracellular hydrogen peroxide detection. H2DCFDA readily diffuses across the cell membrane and is subsequently hydrolyzed by intracellular esterases to non-fluorescent H2DCF. Oxidation of H2DCF by ROS generates highly fluorescent 2′,7′-dichlorofluorescein (DCF), which accumulates in the cytosol. […] The fluorescence intensity of DCF is directly proportional to the concentration of ROS within the cell.
as §1, with “H2DCFDA” for “DHE”, “H2DCFDA,” for “DHE,”, “(MA,” for “(Waltham, MA,”, “522” for “582”

| SMILES | Change in RNS levels [1] | Increase in O2−• (superoxide anion) levels [2] | Increase in MDC fluorescence intensity (autophagy) [3] [%] | Increase in H2O2 levels [4] |
| --- | --- | --- | --- | --- |
| COc1cccc(/C=C2/C(=O)c3ccccc3OC2c2ccccc2)c1 (centres unmarked) [Compound 3] | no significant changes |  |  |  |
| O=C1/C(=C/c2ccccc2)COc2ccccc21 [Compound 1] |  | approximately 40% | 25 | approximately 25% |
| O=C1/C(=C/c2ccccc2)C(c2ccccc2)Oc2ccccc21 (centres unmarked) [Compound 5] | no significant changes | ~35% | 20 | around 15% |
